Legend:
[1] = Rat pharmacokinetic study; type: in vivo, Male Sprague Dawley rats; conditions: for AUC(0-inf) / bioavailability / clearance / Cmax: male, Sprague Dawley, plasma, rat; for AUC(0-inf): IV 1 mg·kg^−1 / PO 5 mg·kg^−1 study, route not given; for bioavailability: oral bioavailability, PO 5 mg·kg^−1 vs IV 1 mg·kg^−1; for clearance: single IV 1 mg·kg^−1; for Cmax: single PO 5 mg·kg^−1
EGFR = EGFR (Homo sapiens, UniProt P00533); test: Biochemical kinase selectivity: IC50 determination of EGFR; conditions: for IC50: TR-FRET, 20 μM ATP; for Fold of EGFR/Btk: ratio of IC50 values
EGFR, sequence (P00533 25-1210): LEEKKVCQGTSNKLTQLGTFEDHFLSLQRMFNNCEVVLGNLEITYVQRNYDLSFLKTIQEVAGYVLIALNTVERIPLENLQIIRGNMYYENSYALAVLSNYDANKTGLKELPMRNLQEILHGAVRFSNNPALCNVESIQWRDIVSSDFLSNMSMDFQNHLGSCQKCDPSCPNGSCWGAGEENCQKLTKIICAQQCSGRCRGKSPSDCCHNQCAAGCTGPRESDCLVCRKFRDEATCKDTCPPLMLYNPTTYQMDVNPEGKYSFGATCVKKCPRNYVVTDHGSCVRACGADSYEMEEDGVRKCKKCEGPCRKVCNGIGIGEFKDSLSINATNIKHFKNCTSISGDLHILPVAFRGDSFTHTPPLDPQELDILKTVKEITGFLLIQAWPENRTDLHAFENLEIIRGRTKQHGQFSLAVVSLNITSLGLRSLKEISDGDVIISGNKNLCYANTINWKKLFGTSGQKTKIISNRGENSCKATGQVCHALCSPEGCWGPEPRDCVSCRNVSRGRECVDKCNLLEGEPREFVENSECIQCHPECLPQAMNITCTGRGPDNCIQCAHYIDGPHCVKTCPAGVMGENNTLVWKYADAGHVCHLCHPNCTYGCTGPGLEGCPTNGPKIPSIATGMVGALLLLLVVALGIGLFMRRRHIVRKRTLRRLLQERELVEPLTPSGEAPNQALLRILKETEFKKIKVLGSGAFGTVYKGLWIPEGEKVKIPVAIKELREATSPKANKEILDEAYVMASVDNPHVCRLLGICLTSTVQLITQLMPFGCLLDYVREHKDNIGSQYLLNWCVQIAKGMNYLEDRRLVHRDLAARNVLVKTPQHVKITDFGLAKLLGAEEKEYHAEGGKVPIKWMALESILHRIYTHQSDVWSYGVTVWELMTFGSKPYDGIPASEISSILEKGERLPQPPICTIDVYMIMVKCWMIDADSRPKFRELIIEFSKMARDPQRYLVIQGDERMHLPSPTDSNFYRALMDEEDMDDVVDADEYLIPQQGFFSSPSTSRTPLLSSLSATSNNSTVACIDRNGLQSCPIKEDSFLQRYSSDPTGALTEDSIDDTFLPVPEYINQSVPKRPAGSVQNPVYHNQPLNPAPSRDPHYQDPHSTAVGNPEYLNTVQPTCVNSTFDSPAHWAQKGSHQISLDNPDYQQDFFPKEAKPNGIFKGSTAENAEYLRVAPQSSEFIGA

Tec = target: T1, Tec (Homo sapiens, UniProt P42680); test: Biochemical kinase selectivity: IC50 determination of Tec; conditions: for IC50: TR-FRET, 280 μM ATP; for Fold of Tec/Btk: ratio of IC50 values
T1 sequence (P42680 1-631): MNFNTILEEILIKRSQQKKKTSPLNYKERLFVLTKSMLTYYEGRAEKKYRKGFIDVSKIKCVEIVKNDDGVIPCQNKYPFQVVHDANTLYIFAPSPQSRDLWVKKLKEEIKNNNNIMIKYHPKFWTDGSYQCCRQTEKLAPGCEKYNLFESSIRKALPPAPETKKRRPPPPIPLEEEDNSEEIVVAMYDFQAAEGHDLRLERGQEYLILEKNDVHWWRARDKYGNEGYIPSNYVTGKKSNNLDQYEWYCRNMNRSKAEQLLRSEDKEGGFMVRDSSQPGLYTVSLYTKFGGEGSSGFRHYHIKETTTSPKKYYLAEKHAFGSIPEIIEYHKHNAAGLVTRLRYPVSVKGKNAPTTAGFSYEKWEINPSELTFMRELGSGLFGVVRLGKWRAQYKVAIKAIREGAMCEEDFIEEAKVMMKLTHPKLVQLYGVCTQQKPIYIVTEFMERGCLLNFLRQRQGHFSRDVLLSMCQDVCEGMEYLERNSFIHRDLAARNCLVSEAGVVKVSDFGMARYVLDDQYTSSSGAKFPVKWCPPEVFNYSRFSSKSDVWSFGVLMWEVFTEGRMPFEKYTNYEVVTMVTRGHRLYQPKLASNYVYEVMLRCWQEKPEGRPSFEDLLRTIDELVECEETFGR

[2] = target: T2, phosphorylated Btk at Tyr223 (Homo sapiens, UniProt Q06187); test: Btk pY223 cellular assay (HTRF, Ramos cells); type: cell-based; conditions: compound 3 hours, pervanadate or Na3VO4 stimulation, read-out: IC50 (nM) in cell Btk pY223
T2 construct: determine the endogenous levels of phosphorylated Btk at Tyr223; endogenous in cells; host or cells: Ramos cells (CRL-1596, ATCC)
T2 sequence (Q06187 whole entry): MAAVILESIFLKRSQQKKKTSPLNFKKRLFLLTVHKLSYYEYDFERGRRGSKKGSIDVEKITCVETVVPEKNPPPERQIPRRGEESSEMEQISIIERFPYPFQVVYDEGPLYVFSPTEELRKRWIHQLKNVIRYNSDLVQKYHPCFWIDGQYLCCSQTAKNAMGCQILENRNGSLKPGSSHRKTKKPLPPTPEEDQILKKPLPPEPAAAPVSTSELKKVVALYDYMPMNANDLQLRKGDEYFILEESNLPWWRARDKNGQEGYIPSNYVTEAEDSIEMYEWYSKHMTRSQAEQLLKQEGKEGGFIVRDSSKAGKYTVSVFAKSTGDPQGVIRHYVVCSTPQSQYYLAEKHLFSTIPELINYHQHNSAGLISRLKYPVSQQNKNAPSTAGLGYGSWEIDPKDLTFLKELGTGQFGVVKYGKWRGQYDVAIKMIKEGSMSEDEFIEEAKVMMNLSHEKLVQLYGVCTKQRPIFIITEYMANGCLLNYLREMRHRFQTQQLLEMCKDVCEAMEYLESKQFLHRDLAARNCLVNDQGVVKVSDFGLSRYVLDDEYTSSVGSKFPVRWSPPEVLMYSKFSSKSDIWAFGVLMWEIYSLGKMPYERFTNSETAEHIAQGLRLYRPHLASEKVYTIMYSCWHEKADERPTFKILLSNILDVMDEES
Method: Btk pY223 cellular assay is an HTRF based assay intended to determine the endogenous levels of phosphorylated Btk at Tyr223.
Briefly, Ramos cells were serum starved in 0.5% FBS-containing RPMI1640 overnight. The cells were then incubated with interested compounds at various concentrations in a CO2 incubator for 3 hours. After the incubation, cells were stimulated with 1 mM pervanadate (PV) or Na3VO4 (OV) for 20 min. Then, the cells were collected and lysed with 1× lysis buffer at RT for 10 min (4× lysis buffer supplied in the kit). 1× antibody mix was prepared by diluting anti-Btk-d2 and anti-pBtk-K in detection buffer (supplied in the kit). […] After mixing gently and spinning briefly, the plate was sealed up and kept in dark at RT for 18 hours. […] IC50 values were calculated with GraphPad Prism software using the sigmoidal dose-response function.

[3] = other Btk inhibitors, meeting abstract 2016; cited from earlier work
[4] = target: T3, Btk kinase (aa2-659, Carna Biosciences) (Homo sapiens, UniProt Q06187); test: Btk kinase enzymatic assay (TR-FRET); type: biochemical; conditions: for IC50: TR-FRET, 30 μM ATP, compound incubated with kinase 60 minutes
T3 construct: purchased Carna Biosciences
T3 sequence (Q06187 2-659): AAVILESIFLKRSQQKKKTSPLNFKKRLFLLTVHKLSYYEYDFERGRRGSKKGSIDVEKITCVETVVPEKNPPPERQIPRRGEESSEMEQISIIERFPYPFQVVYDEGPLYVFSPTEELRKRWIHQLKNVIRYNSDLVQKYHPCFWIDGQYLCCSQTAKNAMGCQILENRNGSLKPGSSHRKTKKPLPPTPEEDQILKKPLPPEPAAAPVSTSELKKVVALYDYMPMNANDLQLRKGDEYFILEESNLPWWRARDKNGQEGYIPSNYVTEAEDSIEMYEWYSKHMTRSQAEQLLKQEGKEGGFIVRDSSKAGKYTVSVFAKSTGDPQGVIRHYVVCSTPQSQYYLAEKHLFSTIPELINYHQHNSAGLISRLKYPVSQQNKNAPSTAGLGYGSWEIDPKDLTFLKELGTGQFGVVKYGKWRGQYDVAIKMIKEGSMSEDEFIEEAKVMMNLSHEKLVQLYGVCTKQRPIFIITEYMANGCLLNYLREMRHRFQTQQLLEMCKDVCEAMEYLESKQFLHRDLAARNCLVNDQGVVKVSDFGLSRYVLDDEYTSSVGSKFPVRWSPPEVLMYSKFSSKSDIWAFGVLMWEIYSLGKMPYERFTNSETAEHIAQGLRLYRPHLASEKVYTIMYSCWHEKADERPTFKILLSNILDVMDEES

| SMILES | AUC(0-inf) [1] [ng·h/mL] | bioavailability [1] [%] | clearance [1] [mL/min/kg] | Cmax [1] [ng/mL] | plasma clearance, Cmax, AUC and oral bioavailability compared to compound 167* ([1]; rat PK study, Table IV) | IC50 (EGFR) [nM] | IC50 (Tec) [nM] | IC50 [2] [nM] | bleeding adverse event (in words) [3] | IC50 [4] [nM] | Fold of EGFR/Btk (EGFR) [fold] | Fold of Tec/Btk (Tec) [fold] | affinity / inhibitory activity for Btk (in words) [4] |
| --- | --- | --- | --- | --- | --- | --- | --- | --- | --- | --- | --- | --- | --- |
| C=CC(=O)N1CCC(C2CCNc3c(C(N)=O)c(-c4cc(OC)c(C5CC5)c(OC)c4)nn32)CC1 (single isomer, unassigned) [Example A2a, (S or R)-7-(1-acryloylpiperidin-4-yl)-2-(4-cyclopropyl-3,5-dimethoxyphenyl)-4,5,6,7-tetrahydropyrazolo[1,5-a]pyrimidine-3-carboxamide] | 1710 | 73.7 | 42.8 | 859 | lower plasma clearance values, higher Cmax, AUC and oral bioavailability | – | – | – | – | – | – | – | – |
| C=CC(=O)Nc1ccccc1C1CCNc2c(C(N)=O)c(-c3cc(OC)c(OC)c(OC)c3)nn21 (centres unmarked) [167^#] | 65.1 | 11.8 | 152 | 60.4 | – | 9.5 | 157 | 83.5 | – | – | – | – | – |
| CC#CC(=O)N1CCC[C@H]1c1nc(-c2ccc(C(=O)Nc3ccccn3)cc2)c2c(N)nccn12 [ACP-196] | – | – | – | – | – | – | – | – | Bleeding as a common adverse event (AE) | – | – | – | – |
| C=CC(=O)N1CCC([C@@H]2CCNc3c(C(N)=O)c(-c4ccc(Oc5ccccc5)cc4)nn32)CC1 [BGB-3111] | – | – | – | – | – | – | – | – | Bleeding as a common adverse event (AE) | – | – | – | – |
| C=CC(=O)N1CCC(C2CCNc3c(C(N)=O)c(-c4cc(OC)c(/C=C/c5ccccc5)c(OC)c4)nn32)CC1 (centres unmarked) [Example A41, (E)-7-(1-acryloylpiperidin-4-yl)-2-(3,5-dimethoxy-4-styrylphenyl)-4,5,6,7-tetrahydropyrazolo[1,5-a]pyrimidine-3-carboxamide] | – | – | – | – | – | 1510 | 101 | 66.8 | – | 3.3 | 458 | 31 | – |
| C=CC(=O)N1CCC(C2CCNc3c(C(N)=O)c(-c4cc(OC)c(C(C)O)c(OC)c4)nn32)CC1 (centres unmarked) [Example A46, 7-(1-acryloylpiperidin-4-yl)-2-(4-(1-hydroxyethyl)-3,5-dimethoxyphenyl)-4,5,6,7-tetrahydropyrazolo[1,5-a]pyrimidine-3-carboxamide] | – | – | – | – | – | 3810 | 974 | 258 | – | 5.9 | 646 | 165 | high affinity for Btk |
| C#CC(=O)N1CCC(C2CCNc3c(C(N)=O)c(-c4cc(OC)c(C)c(OC)c4)nn32)CC1 (centres unmarked) [Example A50, 2-(3,5-dimethoxy-4-methylphenyl)-7-(1-propioloylpiperidin-4-yl)-4,5,6,7-tetrahydropyrazolo[1,5-a]pyrimidine-3-carboxamide] | – | – | – | – | – | 599 | 3.2 | 12.3 | – | 0.34 | 1762 | 9.4 | – |
| C=CC(=O)N1CC(C2CCNc3c(C(N)=O)c(-c4cc(OC)c(Br)c(OC)c4)nn32)C1 (centres unmarked) [Example B2, 7-(1-acryloylazetidin-3-yl)-2-(4-bromo-3,5-dimethoxyphenyl)-4,5,6,7-tetrahydropyrazolo[1,5-a]pyrimidine-3-carboxamide] | – | – | – | – | – | 1750 | 172 | 45.7 | – | 5 | 350 | 34 | – |
| C=CC(=O)N1CC(C2CCNc3c(C(N)=O)c(-c4cc(OC)c(C)c(OC)c4)nn32)C1 (centres unmarked) [Example B3, 7-(1-acryloylazetidin-3-yl)-2-(3,5-dimethoxy-4-methylphenyl)-4,5,6,7-tetrahydropyrazolo[1,5-a]pyrimidine-3-carboxamide] | – | – | – | – | – | 1910 | 157 | 93.1 | – | 5.9 | 324 | 27 | – |
| C=CC(=O)N1CC2CNc3c(C(N)=O)c(-c4cc(OC)c(C)c(OC)c4)nn3C2C1 (centres unmarked) [Example C1, 7-acryloyl-2-(3,5-dimethoxy-4-methylphenyl)-5,5a,6,7,8,8a-hexahydro-4H-pyrazolo[1,5-a]pyrrolo[3,4-e]pyrimidine-3-carboxamide] | – | – | – | – | – | 536 | 380 | 49.6 | – | 3.4 | 158 | 112 | high affinity for Btk |
| CC#CC(=O)N1CC[C@@H](n2c(=O)n(-c3ccc(Oc4ccccc4)cc3)c3c(N)ncnc32)C1 [ONO-4059] | – | – | – | – | – | – | – | – | Bleeding as a common adverse event (AE) | – | – | – | – |
